Source: BigSolDB 2.1

O=C1OC[C@H]2[C@@H]1N(Cc1ccccc1)C(=O)N2Cc1ccccc1
Conditions	solubility (mole fraction)
in DMF, 293.15 K	0.15
in DMF, 298.15 K	0.163
in DMF, 303.15 K	0.179
in DMF, 308.15 K	0.196
in DMF, 312.65 K	0.211
in DMF, 316.05 K	0.224
in DMF, 320.35 K	0.242
in THF, 293.35 K	0.074
in THF, 298.15 K	0.0845
in THF, 303.15 K	0.0971
in THF, 308.15 K	0.111
in THF, 313.05 K	0.126
in THF, 318.15 K	0.142
in THF, 323.25 K	0.165
in dichloromethane, 293.25 K	0.121
in dichloromethane, 296.45 K	0.127
in dichloromethane, 299.35 K	0.132
in dichloromethane, 302.25 K	0.138
in dichloromethane, 305.45 K	0.144
in dichloromethane, 308.15 K	0.149
in dichloromethane, 311.35 K	0.155
in ethyl acetate, 293.65 K	0.0221
in ethyl acetate, 298.35 K	0.0271
in ethyl acetate, 304.15 K	0.0332
in ethyl acetate, 308.25 K	0.0391
in ethyl acetate, 314.15 K	0.0487
in ethyl acetate, 318.15 K	0.0576
in ethyl acetate, 323.75 K	0.0716
in methanol, 287.15 K	0.0034
in methanol, 293.15 K	0.0049
in methanol, 298.15 K	0.0067
in methanol, 303.25 K	0.0088
in methanol, 308.05 K	0.0119
in methanol, 313.45 K	0.016
in methanol, 318.15 K	0.0211
in toluene, 291.15 K	0.0073
in toluene, 298.15 K	0.0101
in toluene, 303.05 K	0.0125
in toluene, 308.65 K	0.0157
in toluene, 313.25 K	0.0197
in toluene, 317.95 K	0.0242
in toluene, 323.75 K	0.0316
